Assay results reported in patent publication US12258365B2, “Organophosphorus-substituted compounds as c-MET inhibitors and therapeutic uses thereof” (BETA PHARMA, INC., priority 2018, dated 2025).

What follows are compounds tested against c-MET (Homo sapiens, UniProt P08581) (assay: Biochemical kinase assay (33P-ATP, filter-binding)). Settings: radiometric 33P-ATP filter-binding kinase reaction, 20 min preincubation, 2 hours at room temperature.
Protocol: Reaction Buffer: 20 mM Hepes (pH 7.5), 10 mM MgCl2, 1 mM EGTA, 0.02%, Brij35, 0.02 mg/mL BSA, 0.1 mM Na3VO4, 2 mM DTT and 1% DMSO.
Required cofactors were added individually to each kinase reaction.
The testing compounds were dissolved in 100% DMSO to specific concentration. The serial dilution was conducted by Integra Viaflo Assist in DMSO.
• 1. Prepare substrate in freshly prepared Reaction Buffer. • 2. Deliver any required cofactors to the substrate solution above. • 3. Deliver kinase into the substrate solution and gently mix. • 4. Deliver compounds in 100% DMSO into the kinase reaction mixture by Acoustic technology (Echo550; nanoliter range), incubate for 20 min at room temp. • 5. Deliver ^33P-ATP (Specific activity 10 μCi/μL) into the reaction mixture to initiate the reaction. • 6. Incubate for 2 hours at room temperature. • 7. Detect radioactivity by filter-binding method. • 8. Kinase activity data were expressed as the percent remaining kinase activity in test samples compared to vehicle (DMSO) reactions. IC50 values and curve fits were obtained using Prism (GraphPad Software) (Table 1).

Sequence of c-MET (P08581 25-1390): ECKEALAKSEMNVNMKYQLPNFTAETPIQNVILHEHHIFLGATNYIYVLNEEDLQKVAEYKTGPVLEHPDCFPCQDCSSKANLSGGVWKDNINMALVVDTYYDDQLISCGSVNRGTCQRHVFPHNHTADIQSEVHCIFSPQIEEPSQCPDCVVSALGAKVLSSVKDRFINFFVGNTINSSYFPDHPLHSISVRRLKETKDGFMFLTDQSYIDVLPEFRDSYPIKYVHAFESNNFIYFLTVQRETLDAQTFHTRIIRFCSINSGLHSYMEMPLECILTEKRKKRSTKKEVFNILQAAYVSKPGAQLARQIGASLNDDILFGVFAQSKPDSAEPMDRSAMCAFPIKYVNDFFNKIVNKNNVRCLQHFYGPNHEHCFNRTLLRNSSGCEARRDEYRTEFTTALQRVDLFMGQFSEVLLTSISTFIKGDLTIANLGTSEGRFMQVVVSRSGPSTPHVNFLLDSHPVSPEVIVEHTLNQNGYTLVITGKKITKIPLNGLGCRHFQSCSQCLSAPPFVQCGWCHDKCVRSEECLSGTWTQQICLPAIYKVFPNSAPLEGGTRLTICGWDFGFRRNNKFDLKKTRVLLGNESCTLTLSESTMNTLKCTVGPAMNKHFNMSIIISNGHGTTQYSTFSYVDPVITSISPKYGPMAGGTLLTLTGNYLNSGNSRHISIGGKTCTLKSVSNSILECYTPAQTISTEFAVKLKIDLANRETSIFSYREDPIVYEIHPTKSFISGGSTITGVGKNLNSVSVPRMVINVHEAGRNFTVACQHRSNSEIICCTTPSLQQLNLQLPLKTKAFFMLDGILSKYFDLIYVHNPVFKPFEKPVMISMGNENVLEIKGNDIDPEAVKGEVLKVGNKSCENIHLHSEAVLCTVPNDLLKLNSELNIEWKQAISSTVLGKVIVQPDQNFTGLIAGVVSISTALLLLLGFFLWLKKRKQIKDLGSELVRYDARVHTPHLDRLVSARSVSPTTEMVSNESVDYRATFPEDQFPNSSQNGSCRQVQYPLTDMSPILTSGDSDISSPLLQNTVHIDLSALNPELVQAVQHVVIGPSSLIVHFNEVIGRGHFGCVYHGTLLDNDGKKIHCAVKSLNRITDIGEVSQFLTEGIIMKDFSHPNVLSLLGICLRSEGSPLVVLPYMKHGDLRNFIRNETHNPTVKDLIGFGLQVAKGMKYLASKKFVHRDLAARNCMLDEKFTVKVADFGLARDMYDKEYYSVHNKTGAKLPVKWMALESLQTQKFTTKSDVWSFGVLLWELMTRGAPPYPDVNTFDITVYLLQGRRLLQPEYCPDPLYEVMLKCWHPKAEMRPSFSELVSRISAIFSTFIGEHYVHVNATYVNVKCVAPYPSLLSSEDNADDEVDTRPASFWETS

SMILES	IC50 [µM]
CCOP(C)(=O)Cc1ccc(-c2cnc3nnn(Cc4ccc5ncccc5c4)c3n2)cc1 (stereo not shown) [Example 2, Ethyl methyl(4-(1-(quinolin-6-ylmethyl)-1H-[1,2,3]triazolo[4,5-b]pyrazin-6-yl)benzyl)-phosphinate]	< 0.01
CP(=O)(O)Cc1ccc(-c2cnc3nnn(Cc4ccc5ncccc5c4)c3n2)cc1 [Example 3, Methyl(4-(1-(quinolin-6-ylmethyl)-1H-[1,2,3]triazolo[4,5-b]pyrazin-6-yl)benzyl)-phosphinic Acid]	< 0.01
CP(C)(=O)c1ccc(-c2cnc3nnn(Cc4ccc5ncccc5c4)c3n2)c(F)c1 [Example 4, (3-Fluoro-4-(1-(quinolin-6-ylmethyl)-1H-[1,2,3]triazolo[4,5-b]pyrazin-6-yl)phenyl)dimethylphosphine oxide]	0.011 to 0.02
CP(C)(=O)c1ccc(-c2cnc3nnn(Cc4ccc5ncccc5c4)c3n2)cc1F [Example 5, (2-Fluoro-4-(1-(quinolin-6-ylmethyl)-1H-[1,2,3]triazolo[4,5-b]pyrazin-6-yl)phenyl)dimethyl-phosphine Oxide]	< 0.01
CP(C)(=O)Cn1cc(-c2cnc3nnn(Cc4ccc5ncccc5c4)c3n2)cn1 [Example 9, Dimethyl((4-(1-(quinolin-6-ylmethyl)-1H-[1,2,3]triazolo[4,5-b]pyrazin-6-yl)-1H-pyrazol-1-yl)methyl)phosphine Oxide]	0.021 to 0.1
CP(C)(=O)c1ccc(Nc2cnc3nnn(Cc4ccc5ncccc5c4)c3n2)cc1F [Example 12, (2-Fluoro-4-((1-(quinolin-6-ylmethyl)-1H-[1,2,3]triazolo[4,5-b]pyrazin-6-yl)amino)phenyl)dimethylphosphine Oxide]	< 0.01
CP(C)(=O)c1cnc2nnn(Cc3ccc4ncccc4c3)c2n1 [Example 18, Dimethyl(1-(quinolin-6-ylmethyl)-1H-[1,2,3]triazolo[4,5-b]pyrazin-6-yl)phosphine Oxide]	1 to 6
Cn1cc2cc(Cn3nnc4ncc(-c5ccc(P(C)(C)=O)c(F)c5)nc43)c(F)cc2n1 [Example 21, (2-fluoro-4-(1-((6-fluoro-2-methyl-2H-indazol-5-yl)methyl)-1H-[1,2,3]triazolo[4,5-b]pyrazin-6-yl)phenyl)-dimethylphosphine oxide]	< 0.01
Cn1cc2cc(Cn3nnc4ncc(-c5ccc(P(C)(C)=O)c(F)c5)nc43)ccc2n1 [Example 22, (2-Fluoro-4-(1-((2-methyl-2H-indazol-5-yl)methyl)-1H-[1,2,3]triazolo[4,5-b]pyrazin-6-yl)phenyl)dimethylphosphine Oxide]	< 0.01

The remaining lines, values ahead:

IC50 [µM]	SMILES
< 0.01	CP(C)(=O)c1ccc(-c2cnc3nnn(Cc4ccc5ncccc5c4)c3n2)cc1 [Example 1, Dimethyl(4-(1-(quinolin-6-ylmethyl)-1H-[1,2,3]triazolo[4,5-b]pyrazin-6-yl)phenyl)-phosphine oxide]
< 0.01	CP(C)(=O)c1ccc(-c2cnc3nnn(Cc4ccc5nccn5c4)c3n2)cc1 [Example 6, (4-(1-(Imidazo[1,2-a]pyridin-6-ylmethyl)-1H-[1,2,3]triazolo[4,5-b]pyrazin-6-yl)phenyl)dimethylphosphine Oxide]
0.011 to 0.02	CP(C)(=O)c1cccc(-c2cnc3nnn(Cc4ccc5nccn5c4)c3n2)c1 [Example 7, (3-(1-(Imidazo[1,2-a]pyridin-6-ylmethyl)-1H-[1,2,3]triazolo[4,5-b]pyrazin-6-yl)phenyl)-dimethylphosphine Oxide]
0.011 to 0.02	CP(C)(=O)c1cccc(-c2cnc3nnn(Cc4ccc5ncccc5c4)c3n2)c1 [Example 8, Dimethyl(3-(1-(quinolin-6-ylmethyl)-1H-[1,2,3]triazolo[4,5-b]pyrazin-6-yl)phenyl)phosphine Oxide]
0.021 to 0.1	CP(C)(=O)Cn1cc(-c2cnc3nnn(Cc4ccc5nccn5c4)c3n2)cn1 [Example 10, ((4-(1-(Imidazo[1,2-a]pyridin-6-ylmethyl)-1H-[1,2,3]triazolo[4,5-b]pyrazin-6-yl)-1H-pyrazol-1-yl)methyl)dimethylphosphine Oxide]
< 0.01	CP(C)(=O)c1ccc(Nc2cnc3nnn(Cc4ccc5ncccc5c4)c3n2)cc1 [Example 11, Dimethyl(4-((1-(quinolin-6-ylmethyl)-1H-[1,2,3]triazolo[4,5-b]pyrazin-6-yl)amino)phenyl)phosphine Oxide]
0.021 to 0.1	CP(C)(=O)c1cccc(-c2ccc3nnc(C(F)(F)c4ccc5nccn5c4)n3n2)c1 [Example 13, (3-(3-(Difluoro(imidazo[1,2-a]pyridin-6-yl)methyl)-[1,2,4]triazolo[4,3-b]pyridazin-6-yl)phenyl)dimethylphosphine Oxide]
1 to 6	CP(C)(=O)c1ccc(-c2ccc3nnc(C(F)(F)c4ccc5nccn5c4)n3n2)cc1 [Example 14, (4-(3-(Difluoro(imidazo[1,2-a]pyridin-6-yl)methyl)-[1,2,4]triazolo[4,3-b]pyridazin-6-yl)phenyl)dimethylphosphine Oxide]
< 0.01	CC(c1ccc2nccn2c1)n1nnc2ncc(-c3ccc(P(C)(C)=O)cc3)nc21 (stereo not shown) [Example 15, (4-(1-(1-(Imidazo[1,2-a]pyridin-6-yl)ethyl)-1H-[1,2,3]triazolo[4,5-b]pyrazin-6-yl)phenyl)dimethylphosphine Oxide]
0.011 to 0.02	CP(C)(=O)c1ccc(-c2cnc3nnn(Cc4ccc5c(c4)CCO5)c3n2)cc1 [Example 16, (4-(1-((2,3-Dihydrobenzofuran-5-yl)methyl)-1H-[1,2,3]triazolo[4,5-b]pyrazin-6-yl)phenyl)dimethylphosphine Oxide]
0.021 to 0.1	CP(C)(=O)c1ccc(-c2cnc3nnn(Cc4ccc5ncc(F)n5c4)c3n2)cc1 [Example 17, (4-(1-((3-Fluoroimidazo[1,2-a]pyridin-6-yl)methyl)-1H-[1,2,3]triazolo[4,5-b]pyrazin-6-yl)phenyl)dimethylphosphine Oxide]
< 0.01	CC(c1ccc2ncccc2c1)n1nnc2ncc(-c3ccc(P(C)(C)=O)cc3)nc21 (stereo not shown) [Example 19, Dimethyl(4-(1-(1-(quinolin-6-yl)ethyl)-1H-[1,2,3]triazolo[4,5-b]pyrazin-6-yl)phenyl)phosphine Oxide]
< 0.01	Cn1cc2cc(Cn3nnc4ncc(-c5ccc(P(C)(C)=O)cc5)nc43)c(F)cc2n1 [Example 20, (4-(1-((6-Fluoro-2-methyl-2H-indazol-5-yl)methyl)-1H-[1,2,3]triazolo[4,5-b]pyrazin-6-yl)phenyl)dimethylphosphine Oxide]
